Where two headings read alike, the source gives them in different places.
What was measured:
DLBCL cell lines = assay: Cell death assay (CellTiter-Glo 2.0), several lines stated together; assay type: cell-based, human
Description: Plotted points are means of duplicates+/−S.E.M., normalized to an untreated control that received the same pre-treatment, and fitted using nonlinear regression.
(§1) Cell Death Assays Treatments were prepared in 96-well plates in 50 μL at 2× concentration. Cells were suspended at 0.2 million cells per mL, and 50 μL (10,000 cells) were added to each well and pipette-mixed. The plates were incubated for 24-72 hours, depending on the experiment, then 100 μL of CellTiter-Glo 2.0 (Promega) was added and pipette-mixed, followed by luminescence reading (SpectraMax iD5, Molecular Devices).

[1] = pipettable melt of PEG-SS—PPS and PEG(500)DME
SU-DHL-5 = assay: Cell death assay (CellTiter-Glo 2.0); assay type: cell-based, human; conditions: 24 h ATSP-7041 pre-treatment, then BH3 mimetic
Description: as §1
(§2) First, SU-DHL-5 was treated with equivalent doses of SAH-MS1-18 either as a free drug, inside of αCD19- or αOspA-PSOMs, or on the outside of empty αCD19- or αOspA-PSOMs (FIG. 14A). […] Other DLBCL cell lines, including OCILy1, OCI-Ly3, and OCI-Ly8, were treated (FIG. 14B).

OCI-Ly3 = assay: Cell death assay (CellTiter-Glo 2.0); assay type: cell-based, human; conditions: 24 h ATSP-7041 pre-treatment, then BH3 mimetic
Description: as §1, §2

[2] = 24 h ATSP-7041 pre-treatment vs vehicle, washed, then BH3 mimetic, WTp53 lines

Structure (SMILES) | change in cell death sensitivity after p53-reactivation (DLBCL cell lines; [2]) | solubility in polymer melt [1] | change in cell death sensitivity after p53-reactivation (DLBCL cell lines) | change in cell death sensitivity after p53-reactivation (SU-DHL-5) | change in cell death sensitivity after p53-reactivation (OCI-Ly3)
Cc1c(-c2ccc(N3CCc4cccc(C(=O)Nc5nc6ccccc6s5)c4C3)nc2C(=O)O)cnn1CC12CC3CC(CC(C3)C1)C2 [A-1331852] | no notable change in sensitivity |  |  |  | 
CC1(C)CCC(CN2CCN(c3ccc(C(=O)NS(=O)(=O)c4ccc(NCC5CCOCC5)c([N+](=O)[O-])c4)c(Oc4cnc5[nH]ccc5c4)c3)CC2)=C(c2ccc(Cl)cc2)C1 [ABT-199] | no notable change in sensitivity |  |  |  | 
Cc1c(-c2c(-c3ccc(F)o3)sc3ncnc(O[C@H](Cc4ccccc4OCc4ccnn4CC(F)(F)F)C(=O)O)c23)ccc(OCCN2CCN(C)CC2)c1Cl [S63845] |  | highly soluble | much more sensitive | made much more sensitive | made much more sensitive
